Literature values, collected in US7432093B2, “Soluble, functional apoptotic protease-activating factor 1 fragments” (The Trustees of Princeton University, priority 2004, dated 2008).

Molecular target: T1, Apaf-1 (Homo sapiens, UniProt O14727)
T1 sequence (O14727 1-1248): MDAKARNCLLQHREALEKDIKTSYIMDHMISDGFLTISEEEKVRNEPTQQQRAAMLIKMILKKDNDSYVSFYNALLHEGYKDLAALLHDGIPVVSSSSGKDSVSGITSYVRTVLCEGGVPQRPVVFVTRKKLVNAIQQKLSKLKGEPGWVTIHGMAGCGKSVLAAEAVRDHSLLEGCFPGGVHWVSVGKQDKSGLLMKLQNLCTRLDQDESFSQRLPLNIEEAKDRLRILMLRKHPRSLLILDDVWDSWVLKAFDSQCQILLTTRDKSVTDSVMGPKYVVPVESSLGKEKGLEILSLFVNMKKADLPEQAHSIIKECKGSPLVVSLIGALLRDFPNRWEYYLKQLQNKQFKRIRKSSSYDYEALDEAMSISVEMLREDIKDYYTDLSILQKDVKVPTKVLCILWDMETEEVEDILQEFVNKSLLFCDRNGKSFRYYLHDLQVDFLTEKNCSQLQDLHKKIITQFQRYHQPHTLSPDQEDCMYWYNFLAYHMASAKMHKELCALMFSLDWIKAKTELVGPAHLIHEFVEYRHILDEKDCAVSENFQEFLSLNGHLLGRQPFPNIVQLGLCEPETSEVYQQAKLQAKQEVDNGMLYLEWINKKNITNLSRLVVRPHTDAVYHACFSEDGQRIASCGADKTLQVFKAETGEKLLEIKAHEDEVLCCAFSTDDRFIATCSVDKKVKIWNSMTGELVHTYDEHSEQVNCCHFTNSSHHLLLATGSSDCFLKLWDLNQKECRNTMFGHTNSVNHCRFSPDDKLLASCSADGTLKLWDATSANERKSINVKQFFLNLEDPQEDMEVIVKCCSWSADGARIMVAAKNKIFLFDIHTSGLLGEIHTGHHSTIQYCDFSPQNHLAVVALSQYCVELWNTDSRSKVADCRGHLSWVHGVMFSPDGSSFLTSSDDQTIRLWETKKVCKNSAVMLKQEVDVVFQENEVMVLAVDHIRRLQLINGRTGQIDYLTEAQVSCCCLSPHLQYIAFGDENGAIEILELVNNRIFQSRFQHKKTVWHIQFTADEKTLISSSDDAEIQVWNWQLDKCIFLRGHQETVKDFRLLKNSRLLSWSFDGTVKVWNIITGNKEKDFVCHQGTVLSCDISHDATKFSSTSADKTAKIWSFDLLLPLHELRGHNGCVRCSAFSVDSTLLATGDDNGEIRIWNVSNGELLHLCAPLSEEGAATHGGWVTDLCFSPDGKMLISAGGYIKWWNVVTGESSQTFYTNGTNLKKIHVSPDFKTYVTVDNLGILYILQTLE
Settings: observed by others, explained by the structure; cited from earlier work

Nc1nc2c(ncn2[C@@H]2O[C@H](COP(=O)(O)OP(=O)(O)OP(=O)(O)O)[C@@H](O)[C@H]2O)c(=O)[nH]1 [GTP]
activation of Apaf-1: does not activate Apaf-1
